Data: ChEMBL document CHEMBL5154819 (Eur J Med Chem, 2022)
In brackets after ≈: the same amount, converted by molar mass.

Legend:
Mus musculus [1] = assay: Antinociceptive activity in acetic acid induced ICR mouse assessed as inhibition effect at 6.25 mg/kg, iv administered for 15 mins followed by acetic acid injection and measured within 15 mins; format: functional; conditions: 0.5 h, time 30 min
Mus musculus [2] = assay: Analgesic activity in acetic acid induced ICR mouse assessed as average writhing times at 25 mg/kg, iv administered for 15 mins followed by acetic acid injection and measured within 15 mins (reference value: 26.1 +/- 16.3); format: functional; conditions: time 30 min, 0.5 h
Mus musculus [3] = assay: Analgesic activity in acetic acid induced ICR mouse assessed as average writhing times at 6.25 mg/kg, iv administered for 15 mins followed by acetic acid injection and measured within 15 mins (reference value: 26.1 +/- 16.3); format: functional; conditions: time 30 min, 0.5 h
Rattus norvegicus = species: Rattus norvegicus; assay: Antiinflammatory activity in carrageenan-induced Sprague-Dawley rat assessed as paw withdrawal threshold measured after 2.5 hrs by paw pressure test; format: functional
Mus musculus [4] = assay: Analgesic activity in acetic acid induced ICR mouse assessed as average writhing times at 3.13 mg/kg, iv administered for 15 mins followed by acetic acid injection and measured within 15 mins (reference value: 26.1 +/- 16.3); format: functional; conditions: time 30 min, 0.5 h
Mus musculus [5] = assay: Analgesic activity in iv dosed ICR mouse assessed as reduction in acetic acid induced writhing administered for 15 mins followed by acetic acid injection and measured within 15 mins; format: functional; conditions: 0.5 h, time 30 min
Mus musculus [6] = assay: Antinociceptive activity in acetic acid induced ICR mouse assessed as inhibition effect at 12.50 mg/kg, iv administered for 15 mins followed by acetic acid injection and measured within 15 mins; format: functional; conditions: 0.5 h, time 30 min
Mus musculus [7] = assay: Antinociceptive activity in acetic acid induced ICR mouse assessed as inhibition effect at 3.13 mg/kg, iv administered for 15 mins followed by acetic acid injection and measured within 15 mins; format: functional; conditions: 0.5 h, time 30 min
Mus musculus [8] = assay: Analgesic activity in acetic acid induced ICR mouse assessed as average writhing times at 12.50 mg/kg, iv administered for 15 mins followed by acetic acid injection and measured within 15 mins (reference value: 26.1 +/- 16.3); format: functional; conditions: dose 12.5 mg/kg, time 30 min, 0.5 h
Mus musculus [9] = assay: Antinociceptive activity in acetic acid induced ICR mouse assessed as inhibition effect at 25 mg/kg, iv administered for 15 mins followed by acetic acid injection and measured within 15 mins; format: functional; conditions: 0.5 h, time 30 min
[10] = Aqueous solubility of the compound

CC(C)Cc1ccc(C(C)C(=O)O)cc1 (stereo unspecified) [IBUPROFEN]
inhibition in vivo at 6.25 mg/kg (Mus musculus [1]): 76.6% | Activity (Mus musculus [2]): 3 | Activity (Mus musculus [3]): 6.1 | ED50 (Rattus norvegicus): 21 mg/kg | Activity (Mus musculus [4]): 21 | ED50 (Mus musculus [5]): 5 mg/kg | inhibition in vivo at 12.5 mg/kg (Mus musculus [6]): 84.7% | inhibition in vivo at 3.13 mg/kg (Mus musculus [7]): 19.5% | Activity (Mus musculus [8]): 4 | inhibition in vivo at 25 mg/kg (Mus musculus [9]): 88.5% | solubility [10]: 21.9 µg/mL (≈ 106 µM)
